The source of these data is US6362160B1, “Immunophilin-binding agents prevent glutamate neurotoxicity associated with vascular stroke and neurodegenerative diseases” (The Johns Hopkins University School of Medicine, priority 1993, dated 2002).

SMILES strings stand for the structures.

Experiment [1] has as its system primary cerebral cortical neuronal cultures. Kind of experiment: cells. It counts as cell-based. On the procedure:
Methods: Primary neuronal cultures from cortex were prepared from fetal Sprague-Dawley rats gestation day 13-14. After dissection, the cells were dissociated by trituration, counted, and plated in 15 mm multi-well (Nunc) plates coated with polyornithine at a density of 3-4×10^5 cells per well. Proliferation of non-neuronal cells was inhibited by applying 10 μg of 5-fluor-2′-deoxyuridine 4 days after plating for a total of 3 days. Neurons were maintained in modified Eagle's medium (MEM), 5% horse serum, 2 mM glutamine in 8% CO2, humidified at 37° C. Media was changed twice a week. Mature neurons (greater than 21 days in culture) were used in all experiments.
Neurotoxicity was determined by exposing the neurons to the various test solutions as previously described (Dawson, et al., Proc. Natl. Acad. Sci., USA, 88:6368-6371 (1991)). Prior to exposure, the cells were washed 3 times with a Tris-buffered control solution (CSS) containing 120 mM NaCl, 5.4 mM KCl, 1.8 mM CaCl2, 25 mM Tris-HCl, 15 mM glucose at pH 7.4. […] Rapamycin (RAPA) was applied 5 min. prior to and during the application of FK-506 and the excitatory amino acids. Following immunosuppressant drug pretreatment, NMDA and quisqualate were applied to the cells for 5 min., then the cells were washed with CSS and replaced with MEM, 21 mM glucose for 24 hr. in the incubator. Exposures to kainate were performed in MEM, 21 mM glucose for 24 hr. in the incubator. NMDA, quisqualate, and kainate were also applied to the neurons without immunosuppressant drug pretreatment. The effect of N-Arg (L-nitroarginine) on NMDA neurotoxicity was assessed as described (Dawson, et al., Proc. Natl. Acad. Sci., USA, 88:6368-6371 (1991)). Twenty to 24 hr. after exposure to test solutions, the neurons were exposed to 0.4% trypan blue in CSS to stain the residue of non-viable cells and to assess toxicity. Viable and non-viable cells were counted with approximately 500-1,500 cells counted per well. At least two separate experiments utilizing four separate wells were performed for each data point shown. A minimum of 4,000-12,000 neurons were counted for each data point. In some experiments photomicrographs were made before and after treatment using a transparent grid at the bottom of each culture plate. Viable and non-viable neurons in identical fields were counted by an observer blinded to study design and treatment protocol.

In experiment [2] the test system is cGMP formation in primary neuronal cortical cultures. Kind of experiment: cGMP levels in primary neuronal cortical cultures. It counts as cell-based, rat. On the procedure: Methods: Primary neuronal cortical cultures were treated under identical conditions as those used for assessment of neurotoxicity except for the addition of 100 μM isobutylmethylxanthine (IBMX) to all wells to inhibit phosphodiesterases. […] Following ether extraction, cGMP was assayed utilizing an Amersham ^125 I-assay kit according to the manufacturer's instructions. Data represent the mean (±S.E.M.) of 6-12 wells (2-3 different plating of cultures) in duplicate. Statistical significance was determined by the Student's t-test, *p≦0.005.

The subject of experiment [3] is NMDA elicited Ca2+ currents. Description: NMDA elicited Ca2+ currents in cortical cultures. It counts as cell-based, rat. As to conditions: FK-506 500 nM (data not shown).

On to `N[C@@H](Cn1oc(=O)[nH]c1=O)C(=O)O` [Quisqualate, quisqualate], for which the “% Cell Death (± S.E.M.)” value in experiment [1] (500 μM Quisqualate alone, 5 min exposure) stood at 85.9 ± 6.0%. For the same compound, the “cell death elicited, compared with glutamate (500 μM)” value in experiment [1] (quisqualate 500 μM) is recorded as “as much cell death as glutamate”.

For `C=CC[C@@H]1/C=C(\C)C[C@H](C)C[C@H](OC)[C@H]2O[C@@](O)(C(=O)C(=O)N3CCCC[C@H]3C(=O)O[C@H](/C(C)=C/[C@@H]3CC[C@@H](O)[C@H](OC)C3)[C@H](C)[C@@H](O)CC1=O)[C@H](C)C[C@@H]2OC` [FK-506], the “% Cell Death (± S.E.M.)” value is 88.1 ± 3.8% in experiment [1] (100 μM Kainate + 500 nM FK-506); “*40.6 ± 3.9%” in experiment [1] (500 μM Glutamate + 500 nM FK-506); 78.3 ± 4.7% in experiment [1] (500 μM NMDA + 500 pM FK-506); 77.1 ± 4.0% in experiment [1] (500 μM NMDA + 1 nM FK-506); 68.5 ± 11.2% in experiment [1] (500 μM NMDA + 10 nM FK-506); “*67.2 ± 4.1%” in experiment [1] (500 μM NMDA + 25 nM FK-506). The “% Cell Death (± S.E.M.)” value is given as “*61.9 ± 5.8%” in experiment [1] (500 μM NMDA + 50 nM FK-506); “*40.0 ± 9.1%” in experiment [1] (500 μM NMDA + 100 nM FK-506); “**29.7 ± 5.8%” in experiment [1] (500 μM NMDA + 500 nM FK-506); “**29.2 ± 4.1%” in experiment [1] (500 μM NMDA + 1 μM FK-506); 90.5 ± 4.4% in experiment [1] (500 μM Quisqualate + 500 nM FK-506). In addition, the EC50 in experiment [1] (Rattus norvegicus, applied 5 min prior to and during 5 min NMDA application, read-out: concentration at which 50% protection from NMDA neurotoxicity is evident) fell in the range of 25 to 100 nM. Besides, the “lowest concentration providing significant protection from NMDA neurotoxicity” value in experiment [1] (applied 5 min prior to and during 5 min NMDA application) is reported as 25 nM. Besides, the results for the “% Basal cGMP Level (± S.E.M.)” value in experiment [2] (300 μM SNP + 100 nM FK-506) and in experiment [2] (500 μM NMDA + 100 nM FK-506) were 509.9 ± 63.4% and “*89.3 ± 25.4%”, respectively. Moreover, the “reduction of the NMDA stimulation of cGMP levels” value in experiment [2] (FK-506 100 nM) was “approximately 80%”. The “effect on NMDA elicited Ca2+ currents” value in experiment [3] was “no effect”.

For `N[C@@H](CCC(=O)O)C(=O)O` [Glutamate], in experiment [1] (500 μM Glutamate alone), the “% Cell Death (± S.E.M.)” value is listed as 76.0 ± 5.2%.

Consider `C=C(C)[C@H]1CN[C@H](C(=O)O)[C@H]1CC(=O)O` [Kainate, kainate], for which the “% Cell Death (± S.E.M.)” value in experiment [1] (100 μM Kainate alone, 24 hr exposure) is 83.2 ± 6.3%. Moreover, in experiment [1] (kainate 100 μM), the “cell death elicited, compared with glutamate (500 μM)” value is “as much cell death as glutamate”.

With `CN[C@H](CC(=O)O)C(=O)O` [NMDA, N-methyl-D-aspartate], the “% Cell Death (± S.E.M.)” value in experiment [1] (500 μM NMDA alone, 5 min exposure, counted 20-24 hr later) is listed as 82.8 ± 4.3%. Besides, the death of neurons result in experiment [1] (5 min exposure to NMDA, observed 24 hrs later) is on record as “about 80%”. Moreover, the “% Basal cGMP Level (± S.E.M.)” value in experiment [2] (500 μM NMDA alone, 5 min, 100 μM IBMX) was found to be 552.6 ± 95.6%.
